A compilation of properties of binary mixtures (doi:10.1016/j.molliq.2017.08.019)

Experiment: xn = mol fraction of the nth substance listed
Settings: 100 kPa

CCCC[n+]1ccn(C)c1.O=S(=O)([O-])C(F)(F)F + CCCC[n+]1ccn(C)c1.F[P-](F)(F)(F)(F)F
viscosity [mPa·s]
Settings	293.15 K	298.15 K	303.15 K	308.15 K	313.15 K	318.15 K	323.15 K	328.15 K
x2 = 0	90.8	76	–	51.7	42.11	35.18	30.02	26.6
x2 = 0.0005	90.9	76	–	51.8	–	35.2	–	26.61
x2 = 0.0006	90.9	76.1	63.6	51.8	–	–	–	26.61
x2 = 0.0007	90.9	–	63.6	51.8	42.14	35.2	30.03	26.61
x2 = 0.0009	90.9	76.1	63.7	51.8	–	35.21	30.04	26.61
x2 = 0.0018	91	–	63.7	51.8	42.17	–	30.05	26.62
x2 = 0.0061	–	76.5	64	52	42.34	35.36	30.15	26.71
x2 = 0.01	91.9	76.9	64.3	52.2	42.5	35.49	30.24	26.79
x2 = 0.0501	96.7	80.5	67.1	54.4	44.11	36.73	31.17	27.59
x2 = 0.0806	100.4	–	–	56.1	45.35	37.69	32.03	28.27
x2 = 0.1	102.9	85.3	–	57.1	46.2	38.32	32.53	28.7
x2 = 0.15	–	90.4	74.7	–	48.4	–	33.86	–
x2 = 0.1999	–	95.8	78.8	–	–	–	35.27	–
x2 = 0.3	132.1	107.5	87.8	69.7	55.5	–	–	33.41
x2 = 0.3999	149.7	120.7	97.7	77	60.9	49.6	41.49	36.06
x2 = 0.5002	169.7	135.6	108.9	85.2	–	54.1	45	38.95
x2 = 0.6	192.3	152.2	121.3	94.1	73.3	58.9	48.8	42.02
x2 = 0.7	–	170.9	135.1	104	80.4	64.2	52.9	45.35
x2 = 0.7995	247	191.8	150.3	114.8	–	70	57.4	48.9
x2 = 0.8997	280	215	167.5	126.9	96.7	–	–	52.8
